From ChEMBL document CHEMBL1157538, “Discovery of a potent, selective, and orally bioavailable c-Met inhibitor: 1-(2-hydroxy-2-methylpropyl)-N-(5-(7-methoxyquinolin-4-yloxy)pyridin-2-yl)-5-methyl-3-oxo-2-phenyl-2,3-dihydro-1H-pyrazole-4-carboxamide (AMG 458)” (J Med Chem, 2008) come the findings set out here.

Experiment [1] deals with T1, Hepatocyte growth factor receptor (Homo sapiens, UniProt P08581). Briefly: Inhibition of HGF-mediated c-Met phosphorylation in human PC3 cells. The format is cell-based, PC-3.
In experiment [2] the target is T1, Hepatocyte growth factor receptor. Briefly: Inhibition of c-Met phosphorylation by HTRF assay. Background: In TR-FRET formats the signal depends on donor and acceptor labels being close together.

Turning to `COc1ccc2c(Oc3ccc(NC(=O)c4c(C)n(CC(C)(C)O)n(-c5ccccc5)c4=O)cc3F)ccnc2c1`, in experiment [1], 50 nM corresponded to half-maximal inhibition (IC50). For the same compound, in experiment [2], affinity was put at a Ki of 2.7 nM.
